# Measured values taken from US8795977B2, “Method for screening a potential modulator compound of a taste receptor” (Conopco, Inc., priority 2009, dated 2014).
# System: Control cells (no T1R1/T1R3)
# Assay: Calcium-based receptor assay in control cells not expressing the receptor
# Type: cell-based, human
# Conditions: change in fluorescence (ΔF)
# Text: We developed a unique functional umami receptor assay to evaluate and quantify umami in tomato and other crude plant or food extracts using the BRET technique: to test the principle we used the donor and acceptor proteins relating to BRET-2. In short, the human T1R1 and T1R3 taste receptors were cloned and fused with Renilla luciferase (Rluc) as donor protein; green fluorescent protein-2 (GFP2) served as acceptor protein and was fused to β-arrestin-2. Both constructs were transfected into a HEK293 cell line cells) for heterologous expression of the proteins. Various mammalian cell lines have been reported to be highly suitable for expression of receptors or other proteins, with HEK293 (human embryonic kidney) cells and CHO (Chinese hamster ovary) cells being some of the most versatile and suitable ones^12. Similarly, GPCRs can be expressed in various ways as described in multiple publications, such as transient^6, 8, 13-15 or stable (constitutive or inducible)^6, 9, 16, 17 expression, depending on the nature of the experiment, the respective receptor or the available time. Upon receptor stimulation with an agonist or crude extracts, the β-arrestin-2/GFP-2 protein interacts with the activated receptor thus bringing GFP-2 in close proximity with luciferase, making energy transfer between these two proteins possible and generating a BRET signal. In the presence of oxygen the luciferase catalyses the transformation of the substrate DeepBlueC into coelenteramide, which can be measured at 395-410 nm. If GFP-2 is in close proximity to the luciferase and energy transfer takes place, the emission will shift to 510 nm; this is referred to as the BRET signal and is expressed as ratio between the acceptor (GFP-2) and the donor (Renilla luciferase). The following experiments are designed to illustrate that conventional calcium-based functional receptor assays are not suitable for measuring the effects of crude extracts; in contrast, the BRET assay (as indicated here with umami) can clearly measure specific receptor responses using crude natural extracts. Moreover, the assay is also sensitive enough for detecting differences of receptor activation between the different tomato samples. Materials & Methods: Chemicals and Media: Fluo-4 AM was from Molecular Probes (# F-14202, prepared as 5 mM stock in DMSO), DMEM (with 4.5 g/l glucose and ultraglutamine, # BE12-604F) was from Lonza, trypsin-EDTA, Lipofectamine 2000, OptiMem and FCS were obtained from Life Technologies Invitrogen. Monosodium glutamate (MSG), Inosine 5′-monophosphate as well as all other chemicals were from Sigma-Aldrich. The plasmid encoding GFP2-β-arrestin-2 was purchased from BioSignal Packard (#6310176). Coelenterazine 400A (a DeepBlueC derivative) and Coelenterazine-H were from VWR International (# BTIU10125-1 and 233903-50, respectively). All other cell culture supplies were from Greiner BioOne. Receptor Fusion Constructs, Cell Lines, and Media: The human T1R1 and human T1R3 umami receptors were fused at their C-terminal in frame to Renilla Luciferase (Rluc) using standard molecular cloning techniques and the codon-humanized pRluc-N3 vector from PerkinElmer (#6310220). For expression of the umami receptors and the construct encoding GFP-2/β-arrestin-2, HEK293 cells (human embryonic kidney cells, ATCC) were used using traditional transfection methods (see also below). HEK293 cells were maintained in DMEM and 10% FBS at 37° C./5% CO2. Tomato Extracts: The tomato extracts which served as representative natural, complex test material were prepared as follows: Frozen tomato samples (in −80° C.) were weighed and dissolved in an equal amount of water. After the seeds and locular tissues (pulp) were removed and put aside, the tomato pericarp (flesh) was ground using a mortar and pestle. The seeds and pulp were then added back to the mixture ensuring that they are well mixed and the seeds were not crushed. […]
compound,measurement,setting,value
"N[C@@H](CCC(=O)O)C(=O)[O-].[Na+] [MSG, Monosodium glutamate]","release of intracellular calcium, Control cells (no T1R1/T1R3), average",100 μM MSG,1135
same,"release of intracellular calcium, Control cells (no T1R1/T1R3), meas. 1",100 μM MSG,1102
same,"release of intracellular calcium, Control cells (no T1R1/T1R3), meas. 2",100 μM MSG,1168
same,"release of intracellular calcium, Control cells (no T1R1/T1R3), average",1 mM MSG,1060
same,"release of intracellular calcium, Control cells (no T1R1/T1R3), meas. 1",1 mM MSG,1100
same,"release of intracellular calcium, Control cells (no T1R1/T1R3), meas. 2",1 mM MSG,1020
same,"release of intracellular calcium, Control cells (no T1R1/T1R3), average",10 mM MSG,1115
same,"release of intracellular calcium, Control cells (no T1R1/T1R3), meas. 1",10 mM MSG,1200
same,"release of intracellular calcium, Control cells (no T1R1/T1R3), meas. 2",10 mM MSG,1030
